Source: patent US20250127695A1, “Use of Branched Medium-Chain Glycerol Ethers as Active Antidandruff Ingredients” (Henkel AG & Co. KGaA, priority 2022, published 2025)

Columns and labels:
[1] = test system: barrier markers (transglutaminase1, filaggrin, decorin, involucrin, and loricrin); assay: gene expression of barrier markers in in vitro tests on artificial skin models; type: cell-based; settings: various concentrations, FIG. 2
Description: The gene expression of all investigated barrier markers (transglutaminase1, filaggrin, decorin, involucrin, and loricrin) was reduced by the treatment.

Malassezia furfur = assay: quantitative suspension test of Malassezia furfur; type: cell-based; settings: incubation ≤60 min at 37° C. in a buffer solution, FIG. 1
Procedure: The efficacy against dandruff was investigated by is of a suspension test. Various formulations were incubated for a certain time (≤60 min) together with the yeast Malassezia furfur, which was present in cell counts of 10^5-10^6 CFU/mL, at 37° C. in a buffer solution.
After incubation, the cell count of the yeast was determined by is of a culture method (growth on Sabouraud Agar). The difference between this value and the respective initial value is a measure of the microbicidal efficacy of the respective anti-dandruff compound.
One of the causes of dandruff formation is the excessive growth of various microorganisms on the scalp. Yeasts of the genus Malassezia play a particularly important role here. The growth-inhibiting effect of various anti-dandruff compounds in this experiment therefore indicates anti-dandruff efficacy (FIG. 1).

In the case of Cc1cc(CC(C)CC(C)(C)C)n(O)c(=O)c1.NCCO (stereo not shown) [Octopirox, Piroctone Olamine], the “gene expression of barrier markers (transglutaminase1, filaggrin, decorin, involucrin, loricrin)” value [1] is reported as “reduced” and the “release of interleukin 8 (inflammatory marker)” value (interleukin 8) is reported as “does not negatively influence the release of inflammatory markers”.
In the case of CCCCCCC(C)OCC(O)CO (stereo not shown) [methylheptyl glycerin], the “microbicidal efficacy against Malassezia (cell count of the yeast after incubation vs initial value)” value (Malassezia furfur) is reported as “killing effect on the Malassezia fungus” and the “gene expression of barrier markers (transglutaminase1, filaggrin, decorin, involucrin, loricrin)” value [1] is reported as “did not lead to a significant decrease in gene expression”.
